Reference: patent publication US20110034498A1, “DOSING REGIMENS FOR THE TREATMENT OF CANCER” (priority 2006, published 2011)

Tests used:
Format in all cases: in vivo
PC-3 cells = assay: mouse PC-3 prostate xenograft model, subcutaneous tumor burden; settings: for End Volume / Start Volume: 10 mg/kg/day (table); for End Volume: after 25 days of treatment; for Start Volume: tumor volume at start
Experimental: A study was performed in mouse PC-3 prostate xenograft models to assess the ability of the methods of the present invention to reduce subcutaneous tumor burden. In the study male athymic nude (Nu/Nu) mice were implanted with PC-3 cells (1×10^7 cells) into the flank of the left leg. When the average tumor size reached 200 mm^3 animals were randomly assigned to treatment groups (N=12/group). Mice were implanted with Alzet mini pumps containing either the HCl salt of compound 1 or vehicle (30% HPBCD in WFI). The mini pumps were surgically implanted subcutaneously on the flank of the right leg, contralateral to the site of the tumor implant. The pumps were replaced with new pumps every 6th day of the study. In the study, mice received either vehicle or the test compound at 10.6 mg/kg/day. Tumor volumes for each group were measured at regular intervals during treatment. The animals were sacrificed after 25 days of treatment and tumor volumes were compared.
A study was performed in mouse PC-3 prostate xenograft models to assess the ability of the methods of the present invention to reduce subcutaneous tumor burden. Male athymic nude (Nu/Nu) mice were implanted with PC-3 cells (1×10^7 cells) into the flank of the left leg. When the average tumor size reached 200 mm^3, animals were randomly assigned to treatment groups (N=12/group). […] The mini pumps were surgically implanted subcutaneously on the flank of the right leg, contralateral to the site of the tumor implant. The pumps were replaced with new pumps every 6th day of the study. Mice received either vehicle or the test compound at 10.6 mg/kg/day. Tumor volumes for each group were measured at regular intervals during treatment. The animals were sacrificed after 25 days of treatment, and tumor volumes were compared.

SKOV-3 cells = assay: mouse SKOV-3 xenograft model, subcutaneous tumor burden; settings: for End Volume / Start Volume: nude mice, HCl salt via s.c. Alzet mini pump; for End Volume: treatment lasted 74 days; for Start Volume: tumor volume at start
Experimental: When the average tumor size reached 50 mm^3, animals were randomly assigned to treatment groups. […] Tumor volumes of the two groups were measured at regular intervals during treatment, which lasted 74 days.

PAN-02 cells = assay: mouse PAN-02 xenograft model, subcutaneous tumor burden
Text: The PAN-02 cells were maintained by in vivo passaging in C57/1316 mice. Male C57/B16 mice were implanted with PAN-02 cells (8 mm^3 tumor fragments) into the inguinal area. Each mouse was implanted with an 8 mm^3 tumor PAN-02 tumor fragment collected from a donor mouse. The tumor fragment was loaded onto a 16 G trocar and implanted by piercing through the skin in the right inguinal area. The animals were randomly assigned to treatment groups (N=14/group). […] Mice received either vehicle or the test compound at 20 mg/kg/day. Tumor volumes of the two groups were measured at regular intervals during treatment, which lasted 32 days.

[1] = PC-3 xenograft (Example 5), nude mice, HCl salt of cyclopamine via s.c. Alzet mini pump
[2] = PC-3 xenograft, male athymic nude mice, HCl salt via s.c. Alzet mini pump, continuous

SMILES | End Volume (PC-3 cells; [1]) | Start Volume (PC-3 cells; [1]) | growth of the tumors (SKOV-3 cells; continuous doses 10.6 or 20 mg/kg/day, 74 days, versus vehicle) | End Volume (SKOV-3 cells; 10.6 mg/kg/day) | Start Volume (SKOV-3 cells; 10.6 mg/kg/day) | End Volume (SKOV-3 cells; 20 mg/kg/day) | Start Volume (SKOV-3 cells; 20 mg/kg/day) | End Volume (PC-3 cells; [2]) | Start Volume (PC-3 cells; [2]) | growth of the tumors (PC-3 cells; PC-3 xenograft, continuous doses 10.6 mg/kg/day, 25 days, versus vehicle) | growth of the tumors (PAN-02 cells; PAN-02 model, continuous doses 20 mg/kg/day, 32 days, versus vehicle) | End Volume (PAN-02 cells; PAN-02 tumor fragments in male C57/B16 mice, HCl salt via s.c. Alzet mini pump, 20 mg/kg/day, treatment lasted 32 days) | Start Volume (PAN-02 cells; PAN-02 tumor fragments in male C57/B16 mice, HCl salt via s.c. Alzet mini pump, 20 mg/kg/day, tumor volume at start)
CC1=C2C[C@H]3[C@@H](CC=C4C[C@@H](O)CC[C@@]43C)[C@@H]2CC[C@]12O[C@@H]1C[C@H](C)CN[C@H]1[C@H]2C [Cyclopamine, reference compound] | 448 ± 152 mm^3 | 170 ± 29 mm^3 |  |  |  |  |  |  |  |  |  |  | 
CC1=C2C[C@H]3[C@@H](CCC4=CC(=O)CC[C@@]43C)[C@@H]2CC[C@@]2(C1)O[C@@H]1C[C@H](C)CN[C@H]1[C@H]2C [Compound 1] |  |  | significantly reduced | 186 ± 57 mm^3 | 57 ± 5 mm^3 | 52 ± 11 mm^3 | 31 ± 4 mm^3 | 444 ± 101 mm^3 | 188 ± 17 mm^3 | significantly reduced | significantly reduced | 481 ± 64 mm^3 | 82 ± 8 mm^3
